Assay results: patent US8710224B2, “Heterocyclic compounds as CCR2B antagonists” (AstraZeneca AB, priority 2004, dated 2014)

Biological target: T1, recombinant human CCR5 receptor (Homo sapiens, UniProt P51681)
T1 construct: expressed in transfected cells; host or cells: Chinese hamster ovary (CHO) cells; membranes
Assay: Radioligand binding assay for inhibition of the binding of MIP-1α
Conditions: displacement of 0.1 nM iodinated MIP-1α; membranes of Chinese hamster ovary cells expressing CCR5
Procedure: Biological Assay for the Ability of Compounds to Inhibit the Binding of MIP-1α This ability is assessed using an in vitro radioligand binding assay. Membranes are prepared from Chinese hamster ovary cells which express the recombinant human CCR5 receptor. These membranes are incubated with 0.1 nM iodinated MIP-1α, scintillation proximity beads and various concentrations of the compounds of the invention in 96-well plates. The amount of iodinated MIP-1α bound to the receptor is then determined by scintillation counting.

T1 sequence (P51681 whole entry): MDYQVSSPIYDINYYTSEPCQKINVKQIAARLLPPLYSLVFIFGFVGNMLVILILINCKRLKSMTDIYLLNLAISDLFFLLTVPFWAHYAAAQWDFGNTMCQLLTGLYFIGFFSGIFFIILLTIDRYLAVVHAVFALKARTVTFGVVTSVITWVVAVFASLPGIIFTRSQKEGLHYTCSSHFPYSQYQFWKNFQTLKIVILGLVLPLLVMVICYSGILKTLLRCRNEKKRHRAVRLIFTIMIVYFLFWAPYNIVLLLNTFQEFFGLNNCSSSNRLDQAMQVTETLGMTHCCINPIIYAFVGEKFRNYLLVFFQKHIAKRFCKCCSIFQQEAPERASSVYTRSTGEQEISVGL

IC50 | Compound
< 10 µM | CS(=O)(=O)c1ccc(CCCN2CCC[C@@H](CN3CCN(C(=O)Nc4ccc(Cl)cc4)CC3)C2)cc1 [Example 325, N-(4-Chlorophenyl)-4-[((3R)-1-{3-[4-(methylsulfonyl)phenyl]propyl}piperidin-3-yl)methyl]piperazine-1-carboxamide]
< 10 µM | CCCC(C)N1CCN[C@@H](C(=O)N2CCN(C(=O)Nc3ccc(Cl)c(Cl)c3)CC2)C1 (stereo partly drawn) [Example 270, N-(3,4-dichlorophenyl)-4-{[(2R)-4-(1-methylbutyl)piperazin-2-yl]carbonyl}piperazine-1-carboxamide]
< 10 µM | O=C(Nc1ccc(Cl)c(Cl)c1)N1CCN(C(=O)[C@H]2CN(CCc3ccccc3)CCN2)CC1 [Example 138, N-(3,4-Dichlorophenyl)-4-{[(2R)-4-(2-phenylethyl)piperazin-2-yl]carbonyl}piperazine-1-carboxamide]
< 10 µM | CS(=O)(=O)c1ccc(CN2CCC[C@@H](CN3CCN(C(=O)Nc4ccc(Cl)c(Cl)c4)CC3)C2)c(Cl)c1 [Example 322, 4-({(3R)-1-[2-Chloro-4-(methylsulfonyl)benzyl]piperidin-3-yl}methyl)-N-(3,4-dichlorophenyl)piperazine-1-carboxamide]
< 10 µM | CS(=O)(=O)c1ccc(CCCN2CCC[C@@H](CN3CCN(C(=O)Nc4ccc(C(F)(F)F)cc4)CC3)C2)cc1 [Example 326, 4-[((3R)-1-{3-[4-(Methylsulfonyl)phenyl]propyl}piperidin-3-yl)methyl]-N-[4-(trifluoromethyl)phenyl]piperazine-1-carboxamide]
< 10 µM | CC(C)N1CC[C@@H](CN2CCN(C(=O)Nc3ccc(Cl)c(Cl)c3)CC2)C1 [Example 231, N-(3,4-dichlorophenyl)-4-{[(3S)-1-isopropylpyrrolidin-3-yl]methyl}piperazine-1-carboxamide]
< 10 µM | O=C(Nc1ccc(Cl)c(Cl)c1)N1CCN(C[C@@H]2CCCN(Cc3ccc(N4CCOCC4)nc3)C2)CC1 [Example 255, N-(3,4-dichlorophenyl)-4-[[(3R)-1-[(6-morpholin-4-ylpyridin-3-yl)methyl]-3-piperidyl]methyl]piperazine-1-carboxamide]
< 10 µM | O=C(Nc1ccc(Cl)c(Cl)c1)N1CCN(C[C@@H]2CCCN(CC3CC3)C2)CC1 [Example 19, 4-{[(3R)-1-(cyclopropylmethyl)-piperidin-3-yl]methyl}-N-(3,4-dichlorophenyl)-piperazine-1-carboxamide]
< 10 µM | CC(C)N1CCN[C@@H](C(=O)N2CCN(C(=O)Nc3ccc(C(F)(F)F)cn3)CC2)C1 [Example 311, 4-{[(2R)-4-isopropylpiperazin-2-yl]carbonyl}-N-[5-(trifluoromethyl)pyridin-2-yl]piperazine-1-carboxamide]
< 10 µM | CCCC(C)N1CCOC(CN2CCN(C(=O)Nc3ccc(F)c(Cl)c3)CC2)C1 (stereo in doubt) [Example 237, N-(3-chloro-4-fluorophenyl)-4-({(2R)-4-[(1S)-1-methylbutyl]morpholin-2-yl}methyl)piperazine-1-carboxamide]
< 10 µM | CS(=O)(=O)c1ccc(CCCN2CCC[C@@H](CN3CCN(C(=O)Nc4ccccc4)CC3)C2)cc1 [Example 254, 4-[[(3R)-1-[3-(4-methylsulfonylphenyl)propyl]-3-piperidyl]methyl]-N-phenyl-piperazine-1-carboxamide]
< 10 µM | COCCN1CCC[C@@H](CN2CCN(C(=O)Nc3ccc(Cl)c(Cl)c3)CC2)C1 [Example 113, N-(3,4-dichlorophenyl)-4-{[(3S)-1-(2-methoxyethyl)piperidin-3-yl]methyl}piperazine-1-carboxamide]
< 10 µM | O=C(Nc1ccc(Cl)c(Cl)c1)N1CCN(C(=O)[C@@H]2CCCN(CCc3ccccc3)C2)CC1 [Example 89, N-(3,4-dichlorophenyl)-4-{[(3R)-1-(2-phenylethyl)piperidin-3-yl]carbonyl}piperazine-1-carboxamide]
< 10 µM | O=C(Nc1ccccc1)N1CCN(C[C@@H]2CCCN(CCCc3ccccc3)C2)CC1 [Example 245, N-phenyl-4-[[(3R)-1-(3-phenylpropyl)-3-piperidyl]methyl]piperazine-1-carboxamide]
< 10 µM | O=C(Nc1ccc(Cl)c(Cl)c1)N1CCN(C(=O)C2CCN(C3CCC(O)(c4nccs4)CC3)C2)CC1 (stereo not drawn) [Example 148, N-(3,4-dichlorophenyl)-4-({1-[cis-4-hydroxy-4-(1,3-thiazol-2-yl)cyclohexyl]pyrrolidin-3-yl}carbonyl)piperazine-1-carboxamide]
< 10 µM | CC(C)N1CCN[C@@H](C(=O)N2CCN(C(=O)Nc3ccc(C#N)c(C(F)(F)F)c3)CC2)C1 [Example 292, N-[4-Cyano-3-(trifluoromethyl)phenyl]-4-{[(2R)-4-isopropylpiperazin-2-yl]carbonyl}piperazine-1-carboxamide]
< 10 µM | Cc1cccnc1CN1CCC[C@@H](CN2CCN(C(=O)Nc3ccc(Cl)c(Cl)c3)CC2)C1 [Example 44, N-(3,4-dichlorophenyl)-4-({(3S)-1-[(3-methylpyridin-2-yl)methyl]piperidin-3-yl}methyl)piperazine-1-carboxamide]

IC50 | Compound
< 10 µM | O=C(Nc1ccc(Cl)c(Cl)c1)N1CCN(C[C@@H]2CCCN(Cc3cc[nH]n3)C2)CC1 [Example 34, N-(3,4-dichlorophenyl)-4-{[(3S)-1-(1H-pyrazol-3-ylmethyl)-piperidin-3-yl]methyl}piperazine-1-carboxamide]
< 10 µM | CCN1CCC[C@@H](CN2CCN(C(=O)Nc3ccc(Cl)c(Cl)c3)CC2=O)C1 [Example 91, N-(3,4-dichlorophenyl)-4-{[(3R)-1-ethylpiperidin-3-yl]methyl}-3-oxopiperazine-1-carboxamide]
< 10 µM | CC(C)N1CCN[C@@H](C(=O)N2CCN(C(=O)Nc3nc(C(F)(F)F)cs3)CC2)C1 [Example 290, 4-{[(2R)-4-Isopropylpiperazin-2-yl]carbonyl}-N-[4-(trifluoromethyl)-1,3-thiazol-2-yl]piperazine-1-carboxamide]
< 10 µM | O=C(Nc1ccc(Cl)c(Cl)c1)N1CCN(C[C@@H]2CCCN(Cc3ccc(O)nc3)C2)CC1 [Example 257, N-(3,4-dichlorophenyl)-4-({(3R)-1-[(6-hydroxypyridin-3-yl)methyl]piperidin-3-yl}methyl)piperazine-1-carboxamide]
< 10 µM | CS(=O)(=O)c1ccc(CCCN2CCC[C@@H](CN3CCN(C(=O)Nc4ccc(Cl)c(Cl)c4)CC3)C2)cc1 [Example 328, N-(3,4-Dichlorophenyl)-4-[((3R)-1-{3-[4-(methylsulfonyl)phenyl]propyl}piperidin-3-yl)methyl]piperazine-1-carboxamide]
< 10 µM | COc1ccc(CCN2CCC[C@@H](CN3CCN(C(=O)Nc4ccccc4)CC3)C2)cc1 [Example 250, 4-[[(3R)-1-[2-(4-methoxyphenyl)ethyl]-3-piperidyl]methyl]-N-phenyl-piperazine-1-carboxamide]
< 10 µM | CCN1CCN[C@@H](C(=O)N2CCN(C(=O)Nc3ccc(Cl)c(Cl)c3)CC2)C1 [Example 133, N-(3,4-Dichlorophenyl)-4-{[(2R)-4-ethylpiperazin-2-yl]carbonyl}piperazine-1-carboxamide]
< 10 µM | C=CCN1CCN[C@@H](C(=O)N2CCN(C(=O)Nc3ccc(Cl)c(Cl)c3)CC2)C1 [Example 303, N-(3,4-dichlorophenyl)-4-{[(2R)-4-(prop-2-en-1-yl)piperazin-2-yl]carbonyl}piperazine-1-carboxamide]
< 10 µM | O=C(Nc1ccc(Cl)c(Cl)c1)N1CCN(C[C@H]2CN(C3CCOCC3)CCO2)CC1 [Example 121, N-(3,4-dichlorophenyl)-4-{[(2S)-4-(tetrahydro-2H-pyran-4-yl)morpholin-2-yl]methyl}piperazine-1-carboxamide]
< 10 µM | CC(C)N1CCN[C@@H](C(=O)N2CCN(C(=O)Nc3cccc(C(F)(F)F)c3)CC2)C1 [Example 214, 4-{[(2R)-4-isopropylpiperazin-2-yl]carbonyl}-N-[3-(trifluoromethyl)phenyl]piperazine-1-carboxamide]
< 10 µM | CC(C)N1CCO[C@@H](CN2CCN(C(=O)Nc3ccc(Cl)c(Cl)c3)CC2)C1 [Example 119, N-(3,4-dichlorophenyl)-4-{[(2S)-4-isopropylmorpholin-2-yl]methyl}piperazine-1-carboxamide]
< 10 µM | CCC(C)N1CCN[C@@H](C(=O)N2CCN(C(=O)Nc3ccc(Cl)c(Cl)c3)CC2)C1 (stereo partly drawn) [Example 220, 4-{[(2R)-4-sec-butylpiperazin-2-yl]carbonyl}-N-(3,4-dichlorophenyl)piperazine-1-carboxamide]
< 10 µM | COc1ccc(CN2CCC[C@@H](CN3CCN(C(=O)Nc4ccc(Cl)c(Cl)c4)CC3)C2)cc1 [Example 47, N-(3,4-dichlorophenyl)-4-{[(3R)-1-(4-methoxybenzyl)piperidin-3-yl]methyl}piperazine-1-carboxamide]
< 10 µM | O=C(Nc1cccc(C(F)(F)F)c1)N1CCN(C[C@@H]2CCCN(C3CC3)C2)CC1 [Example 109, 4-{[(3S)-1-cyclopropylpiperidin-3-yl]methyl}-N-[3-(trifluoromethyl)phenyl]piperazine-1-carboxamide]
< 10 µM | CN1CCCC(CN2CCN(C(=O)Nc3ccccc3)CC2)C1 (stereo not shown) [Example 1, 4-[(1-methylpiperidin-3-yl)methyl]-N-phenylpiperazine-1-carboxamide]
< 10 µM | O=C(Nc1ccc(Cl)c(Cl)c1)N1CCN(C(=O)C2CCN([C@H]3CC[C@](O)(c4ccncc4)CC3)C2)CC1 (stereo partly drawn) [Example 147, N-(3,4-dichlorophenyl)-4-{[1-(cis-4-hydroxy-4-pyridin-4-ylcyclohexyl)pyrrolidin-3-yl]carbonyl}piperazine-1-carboxamide]
< 10 µM | CC(=O)N1CCC(N2CCO[C@@H](CN3CCN(C(=O)Nc4ccc(Cl)c(Cl)c4)CC3)C2)CC1 [Example 120, 4-{[(2S)-4-(1-acetylpiperidin-4-yl)morpholin-2-yl]methyl}-N-(3,4-dichlorophenyl)piperazine-1-carboxamide]
